Results on 1 compound are retold here after patent publication US20140228407A1, “TETRA-PYRIDINE COMPOUNDS AND COMPOSITION FOR PROTECTING CELLS, TISSUES AND ORGANS AGAINST ISCHEMIA-REPERFUSION INJURY” (YISSUM RESEARCH DEVELOPMENT COMPANY OF THE HEBREW …, priority 2011, published 2014).

Molecules are shown by their SMILES. Marks after values point to notes of the source that are not given here.

Experiment [1] deals with model of ischemia/reperfusion in the CD rat. Briefly: Rat model of ischemia/reperfusion, infarct analysis (Phase B). It counts as in vivo. Particulars: for Infarct/AAR (%) Mean: 4 hour reperfusion; for Infarct/AAR (%) Mean / Infarct/LV (%) Mean: rat. How it is done: This study was conducted to evaluate the effects of the Compound #6 on cardiac function, infarct size, and Troponin I levels in a model of ischemia/reperfusion in the CD® (CR1CD® (SD)) rat. Phase A was conducted for toxicity evaluation purposes. In Phase B (the efficacy phase), two treatment groups of eight male rats were administered Compound #6 at dose levels of 0.2 and 2 mg/kg via intravenous infusion following myocardial infarction. The 2 mg/kg dose of Compound #6 was administered intravenously via a slow infusion starting 3 to 14 minutes prior to reperfusion and continuing for 20 minutes to 20 minutes and 32 seconds, which was approximately 6 to 17 minutes after reperfusion (depending on the infusion start time). The 0.2 mg/kg dose of Compound #6 was administered intravenously via a slow infusion starting 10 minutes prior to reperfusion and continuing for 30 minutes to 30 minutes and 30 seconds, which was approximately 20 minutes after reperfusion.
The animals were placed on mechanical ventilation and […]. Once anesthetized, the animal was placed in a right lateral recumbency, an arterial catheter or polyethylene tube was placed in the carotid artery for monitoring blood pressure and a thoracotomy was performed. The left coronary artery (LCA) was identified. A ligature was placed around the LCA and the vessel was ligated. The LCA was maintained occluded for 29 to 43 minutes. Occlusion of the vessel was verified via blanching of the heart and via ST interval changes. At the end of the occlusion period, the knot was loosened leaving the ligature in place, and the vessel was allowed to reperfuse for 3 hours 27 minutes to 4 hours 51 minutes. Following infarct, a chest tube was placed, the deep and superficial muscle layers were sutured at the surgical incision, and the skin was closed with staples. The chest tube was removed after spontaneous respiration was established. In Phase A, the animals were recovered from anesthesia and evaluated for 4 days. In Phase B, animals were maintained under anesthesia for 3 hours 27 minutes to 4 hours 51 minutes prior to being submitted to necropsy.
In Phase B, Compound #6 was administered once on Day 0 via intravenous infusion at dose levels of 0.2 and 2 mg/kg. The doses were administered at a dose volume of 1 mL/kg (0.05 [2 mg/kg] or 0.033 [0.2 mg/kg] mL/kg/minute). Two control groups received the vehicle (saline) or the vehicle for Compound #6 (10% (w/v) 2-hydroxypropyl-beta-cyclodextrin and 100 mM sodium chloride in deionized water) in the same manner as the 2 mg/kg treated group. The vehicles and 2 mg/kg Compound #6 were administered intravenously via a slow infusion starting 3 to 14 minutes prior to reperfusion and continuing for 20 minutes to 20 minutes and 32 seconds, which was approximately 6 to 17 minutes after reperfusion (depending on the infusion start time). The 0.2 mg/kg Compound #6 was administered intravenously via a slow infusion starting 10 minutes prior to reperfusion and continuing for 30 minutes to 30 minutes and 30 seconds, which was approximately 20 minutes after reperfusion. The positive control article, Erythropoietin, was administered at 5000 IU/kg via a bolus intravenous injection. The positive control article dose was administered at a dose volume of 2.5 mL/kg. The positive control was administered via a 3 to 60 second injection at 5 minutes prior to reperfusion.
After LAD reperfusion (4 hours), the animals were euthanized by an intraperitoneal injection of sodium pentobarbital followed by exsanguination via severing the abdominal vena cava. The heart was flushed with heparinized Lactated Ringers Solution (LRS) until clear of blood and the LAD was tied off using the same ligature used to occlude the vessel and Evan Blue dye was injected. The heart was weighed and breadloafed (4-5 sections per animal). […]

Experiment [2] has as its system neonate rat cardiomyocyte cells. Briefly: Hypoxia/ischemia in neonatal rat cardiomyocyte cultures, LDH release. Conditions: 30, 100 and 300 nm compound vs 1 μM TPEN; 150 min ischemia then reoxygenation. Type of experiment: cell-based. As to the method: Rat hearts (1-2 days old) were sterilely removed and bathed three times in Ca^2+- and Mg^2+-free PBS to remove excess blood cells. The hearts were minced to small fragments and then agitated in a proteolytic enzyme-RDB solution prepared from a fig tree extract as described previously (Brik et al., 1990; Shneyvays et al., 2001). The RDB was diluted 1:200 in PBS at 25° C. for a few cycles of 10 min each. The supernatant suspension containing dissociated cells, to which medium containing 10% horse serum was added, was centrifuged at 500 g for 5 min. After centrifugation, the supernatant phase was discarded, and cells were resuspended in Dulbecco's modified Eagle medium supplemented with 10% heat-inactivated horse serum and 0.5% chick embryo extract. Cell suspensions were diluted to 1×10^6 cells/ml, and 300 μl was placed in 24 well plates (4 plates) collagen/gelatin-coated plastic culture dishes. Cultures were incubated in a humidified atmosphere of 5% CO2 and 95% air at 37° C. […] The growth medium was replaced every 3 days. The experiments were performed in vitro on these cardiomyocyte cultures after 3 to 5 days. […]
LDH activity was determined using LDH-L kit (Thermo Trace, Melbourne, Australia) within the cardiac cell medium (PBS). […] LDH enzymatic activity was measured in a spectrophotometer at a wavelength of 340 nm at 30° C. […]

In the case of `Cc1ccc(CN(CCN(Cc2ccc(C)cn2)Cc2ccc(C)cn2)Cc2ccc(C)cn2)nc1` [Compound #6], the “Infarct/AAR (%) Mean” value in experiment [1] (0.2 mg/kg intravenous infusion) is reported as 22.2±5.24%; in experiment [1] (0.2 mg/kg intravenous infusion, listed as Comp #6), 22^b %; in experiment [1] (2 mg/kg intravenous infusion), 19.1±7.38%; in experiment [1] (2 mg/kg intravenous infusion, listed as Comp #6), 19^b %. For the same compound, the “Infarct/LV (%) Mean” value in experiment [1] (0.2 mg/kg intravenous infusion) and in experiment [1] (2 mg/kg intravenous infusion) was 7% throughout. In experiment [1] (either 0.2 or 2.0 mg/kg IV as an infusion, 30 minute ischemia, vs saline and vehicle controls), the “infarct size following ischemia-reperfusion injury, in words” value is given as “significant decrease in infarct size”. In addition, the “protective effect against hypoxic insult (LDH release) compared with TPEN, FIG. 1A” value in experiment [2] is “significantly better protective outcome from hypoxia than TPEN”.
